Source: patent US20260191835A1, “COMBINATIONS COMPRISING A MENIN-MLL INHIBITOR AND AT LEAST ONE OTHER THERAPEUTIC AGENT” (JANSSEN PHARMACEUTICA NV, priority 2022, published 2026)

What was measured:
MOLM-13 tumors = experiment: Efficacy (survival) in disseminated MOLM-13 (KMT2A-rearranged) model in NSG mice; type: in vivo; details: NSG mice bearing established MOLM-13 tumors, vs vehicle; Azacitidine 2 mg/kg ip QD × 7; Compound 51 2 mg/kg po QD × 28; n = 10
Description: 4) Efficacy of Menin-MLL Inhibitor in Combination with Azacitidine in MOLM-13 (KMT2A-Rearranged) Model in NSG Mice
Compound 51 was formulated in purified pyrogen-free deionized water, pH 4.0 and prepared to reach a total volume of 8 mL/kg. Doses were adjusted by individual body weight each day. Working stocks of Compound 51 were prepared once per week for each study and stored at 25° C.
Female NSG (NOD.Cg-Prkdc^scid Il2rg^tm1Wjl/SzJ) mice were used when they were approximately 6 to 8 weeks of age and weighed approximately 25 g. All animals could acclimate and recover from any shipping-related stress for a minimum of 7 days prior to experimental use. […]
Animals were monitored daily for clinical signs related to either compound toxicity or tumor burden (i.e., hind limb paralysis, lethargy, etc.).
For survival assessment, results were plotted as the percentage survival against days post tumor implant. […] Median survival was determined utilizing Kaplan-Meier survival analysis. The percent increased life span (ILS) was calculated as: ((median survival day of treated group−median survival day of control group)/median survival day of control group)×100. […]
Survival and body weight data were graphically represented utilizing Prism (Version 9). Statistical significance for body weights was evaluated as described above. […]

MOLM14 cells = experiment: Proliferation assay (spheroid assay), MOLM14; type: cell-based; details: Homo sapiens, MOLM-14, 192 h, 8 days; read-out: spheroid assay_MOLM14 IC50
Description: (§1) The anti-proliferative effect of menin/MLL protein/protein interaction inhibitor test compounds was assessed in human leukemia cell lines. The cell line MOLM14 harbors a MLL translocation and expresses the MLL fusion protein MLL-AF9, respectively, as well as the wildtype protein from the second allele. OCI-AML3 cells that carry the NPM1c gene mutation were also tested. […] KO-52 was used as a control cell line containing two MLL (KMT2A) wildtype alleles in order to exclude compounds that display general cytotoxic effects.
(§2) MOLM14 cells were cultured in RPMI-1640 (Sigma Aldrich) supplemented with 10% heat-inactivated fetal bovine serum (HyClone), 2 mM L-glutamine (Sigma Aldrich) and 50 μg/ml gentamycin (Gibco). KO-52 and OCI-AML3 cell lines were propagated in alpha-MEM (Sigma Aldrich) supplemented with 20% heat-inactivated fetal bovine serum (HyClone), 2 mM L-glutamine (Sigma Aldrich) and 50 µg/ml gentamycin (Gibco).
In order to assess the anti-proliferative effects, 200 MOLM14 cells, […] or 300 KO-52 cells were seeded in 200 μl media per well in 96-well round bottom, ultra-low attachment plates (Costar, catalogue number 7007). Cell seeding numbers were chosen based on growth curves to ensure linear growth throughout the experiment. Test compounds were added at different concentrations and the DMSO content was normalized to 0.3%. Cells were incubated for 8 days at 37° C. and 5% CO2. Spheroid like growth was measured in real-time by live-cell imaging (IncuCyteZOOM, Essenbio, 4× objective) acquiring images at day 8. Confluence (%) as a measure of spheroid size was determined using an integrated analysis tool.
In order to determine the effect of the test compounds over time, the confluence in each well as a measure of spheroid size, was calculated. Confluence of the highest dose of a reference compound was used as baseline for the LC (Low control) and the confluence of DMSO treated cells was used as 0% cytotoxicity (High Control, HC).
Absolute IC50 values were calculated as percent change in confluence as follows: • LC=Low Control: cells treated with e.g. […] of the cytotoxic agent staurosporin, or e.g. cells treated with a high concentration of an alternative reference compound • HC=High Control: Mean confluence (%) (DMSO treated cells)
GraphPad Prism (version 7.00) was used to calculate the IC50. Dose-response equation was used for the plot of % Effect vs Log 10 compound concentration with a variable slope and fixing the maximum to 100% and the minimum to 0%.

KO-52 cells = experiment: Proliferation assay (spheroid assay), KO-52 control cell line; type: cell-based; details: Homo sapiens, 192 h, 8 days; MLL wildtype control cell line; read-out: spheroid assay_KO-52 IC50
Description: as §1, §2
In order to assess the anti-proliferative effects, 200 MOLM14 cells, 200° C. […] Spheroid like growth was measured in real-time by live-cell imaging (IncuCyteZOOM, Essenbio, 4× objective) acquiring images at day 8. Confluence (%) as a measure of spheroid size was determined using an integrated analysis tool.
In order to determine the effect of the test compounds over time, the confluence in each well as a measure of spheroid size, was calculated. […]

MEIS1 mRNA expression = MEIS1 mRNA expression assay (Quantigene Singleplex) in MOLM14; type: cell-based; details: Homo sapiens, MOLM-14, 48 h, MOLM14 cells, 48 hours with compound
Description: 2b) MEIS1 mRNA Expression Assay
MEIS1 mRNA expression upon treatment of compound was examined by Quantigene Singleplex assay (Thermo Fisher Scientific). This technology allows for direct quantification of mRNA targets using probes hybridizing to defined target sequences of interest and the signal is detected using a Multimode plate reader Envision (PerkinElmer). The MOLM14 cell line was used for this experiment. Cells were plated in 96-well plates at 3,750 cells/well in the presence of increasing concentrations of compounds. After incubation of 48 hours with compounds, cells were lysed in lysis buffer and incubated for 45 minutes at 55° C. Cell lysates were mixed with human MEIS1 specific capture probe or human RPL28 (Ribosomal Protein L28) specific probe as a normalization control, as well as blocking probes. Cell lysates were then transferred to the custom assay hybridization plate (Thermo Fisher Scientific) and incubated for 18 to 22 hours at 55° C. Subsequently, plates were washed to remove unbound materials followed by sequential addition of preamplifiers, amplifiers, and label probe. Signals (=gene counts) were measured with a Multimode plate reader Envision. IC50s were calculated by dose-response modelling using appropriate software. For all non-housekeeper genes response equal counts corrected for background and relative expression. For each sample, each test gene signal (background subtracted) was divided by the normalization gene signal (RPL28: background subtracted). Fold changes were calculated by dividing the normalized values for the treated samples by the normalized values for the DMSO treated sample. Fold changes of each target gene were used for the calculation of IC50s.

Row | IC50 (MOLM14 cells) [nM] | IC50 (MEIS1 mRNA expression) [nM] | Structure (SMILES) | % ILS (increased life span) (MOLM-13 tumors) | IC50 (KO-52 cells) [nM]
1 |  |  | Nc1ncn([C@@H]2O[C@H](CO)[C@@H](O)[C@H]2O)c(=O)n1 [Azacitidine, azacitidine, reference compound] | *37% | 
2 | 39 | 89 | CC(=O)N1CCC(CN2CCC(Cc3cn(-c4ccc(F)cc4C(=O)N(C)C(C)C)c4cncc(C)c34)C2)CC1 (single isomer, unassigned) [Compound 50] |  | 2300
